This note sets out measurements from ChEMBL document CHEMBL6153100, “Controlins I-X, Resin Glycosides from the Seeds of Convolvulus tricolor and Their Biological Activities” (J Nat Prod, 2025).

Molecules are shown by their SMILES. Activity calls are given as the source filed them. The calls are words filed in the database; no cut-off is given here.

The subject of one assay is BV-2. As to the kind of experiment: Antineuroinflammatory activity in LPS-induced mouse BV-2 microglial cells assessed as inhibition of nitric oxide production incubated for 24 hrs by Griess reagent assay. It is filed as functional, cell-based. The note with it: BV-2, 24 h. (Griess reagent forms a coloured azo dye with nitrite.)
The next assay relates to PC-12. Nature of the assay: Neuroprotective activity in H2O2-induced oxidative damage in rat PC12 cells assessed as increase in cell survival rate at 1 to 10 uM pre-incubated for 2 hrs followed by H2O2 addition and measured after 24 hrs by MTT assay. The class given is functional, cell-based. The conditions noted are these: dose 1-10 µM, time 26.0 hrs. In general terms: Tetrazolium dyes change colour on reduction, which living cells bring about.

A further assay deals with Caenorhabditis elegans. Nature of the assay: Anti-alzheimer activity in transgenic Caenorhabditis elegans UM0001 expressing Amyloid-beta/Tau assessed as decrease in dyskinesia measured for 30 mins by basal slowing response assay. It is filed as functional, organism-based. The note with it: dose 1-4 µM.

Broadly, the IC50 is the midpoint of a concentration-inhibition curve.

`C/C=C(\C)C(=O)OC[C@H]1O[C@@H](O[C@H]2[C@H](O)[C@@H](CO)O[C@@H](O[C@H]3[C@H](O[C@@H](CCCC)CCCCCCCCCCC(=O)OC)O[C@H](CO[C@@H]4O[C@H](C)[C@H](O)[C@H](O)[C@H]4O)[C@@H](O)[C@@H]3O)[C@@H]2O[C@@H]2O[C@@H](C)[C@H](OC(=O)[C@H](C)[C@@H](C)OC(=O)[C@H](C)[C@@H](C)O[C@@H]3O[C@H](C)[C@@H](O)[C@H](O)[C@H]3O)[C@@H](O[C@@H]3O[C@H](CO)[C@@H](O)[C@H](O)[C@H]3O)[C@H]2O)[C@H](O)[C@@H](O)[C@@H]1O`: the IC50 with BV-2 was 9.7 µM. Consider `CCCC[C@@H](CCCCCCCCCCC(=O)C=O)O[C@@H]1O[C@H](CO[C@H]2O[C@H](C)[C@@H](O)[C@@H](O)[C@H]2O)[C@@H](O)[C@H](O)[C@H]1O[C@@H]1O[C@H](CO)[C@@H](O)[C@H](O[C@@H]2O[C@H](CO)[C@@H](O)[C@H](O)[C@H]2O)[C@H]1O[C@@H]1O[C@@H](C)[C@H](OC(=O)[C@H](C)[C@@H](C)OC(=O)[C@H](C)[C@@H](C)O[C@@H]2O[C@H](C)[C@@H](O)[C@H](O)[C@H]2O[C@@H]2O[C@H](CO)[C@@H](O)[C@H](O)[C@H]2O)[C@@H](O[C@@H]2O[C@H](CO)[C@@H](O)[C@H](O)[C@H]2O)[C@H]1O`, for which, in the assay on PC-12, the outcome was Active.

As to `C/C=C(\C)C(=O)OC[C@H]1O[C@@H](O[C@H]2[C@H](O)[C@@H](COC(=O)[C@H](C)[C@@H](C)O)O[C@@H](O[C@H]3[C@H](O[C@@H](CCCC)CCCCCCCCCCC(=O)OC)O[C@H](CO[C@@H]4O[C@H](C)[C@H](O)[C@H](O)[C@H]4O)[C@@H](O)[C@@H]3O)[C@@H]2O[C@@H]2O[C@@H](C)[C@H](OC(=O)[C@H](C)[C@@H](C)OC(=O)[C@H](C)[C@@H](C)O[C@@H]3O[C@H](C)[C@@H](O)[C@H](O)[C@H]3O)[C@@H](O[C@@H]3O[C@H](CO)[C@@H](O)[C@H](O)[C@H]3O)[C@H]2O)[C@H](O)[C@@H](O[C@@H]2O[C@H](CO)[C@@H](O)[C@H](O)[C@H]2O)[C@@H]1O`, the Activity result with Caenorhabditis elegans is “Dose-dependent-effect”. Further, the IC50 in the assay on BV-2 stood at 6.73 µM. With `C/C=C(\C)C(=O)OC[C@H]1O[C@@H](O[C@H]2[C@H](O)[C@@H](COC(=O)[C@H](C)[C@@H](C)O)O[C@@H](O[C@H]3[C@H](O[C@@H](CCCC)CCCCCCCCCCC(=O)OC)O[C@H](CO[C@@H]4O[C@@H](C)[C@H](O)[C@@H](O)[C@H]4O)[C@@H](O)[C@@H]3O)[C@@H]2O[C@@H]2O[C@@H](C)[C@H](OC(=O)[C@H](C)[C@@H](C)OC(=O)[C@H](C)[C@@H](C)O[C@@H]3O[C@H](C)[C@@H](O)[C@H](O)[C@H]3O)[C@@H](O[C@@H]3O[C@H](CO)[C@@H](O)[C@H](O)[C@H]3O)[C@H]2O)[C@H](O)[C@@H](O[C@@H]2O[C@H](CO)[C@@H](O)[C@H](O)[C@H]2O)[C@@H]1O`, in the assay with Caenorhabditis elegans, the Activity result is “Dose-dependent-effect”. Besides, in the assay on PC-12, the outcome was Active. For `C/C=C(\C)C(=O)OC[C@H]1O[C@@H](O[C@H]2[C@H](O)[C@@H](CO)O[C@@H](O[C@H]3[C@H](O[C@@H](CCCC)CCCCCCCCCCC(=O)OC)O[C@H](CO[C@@H]4O[C@H](C)[C@H](O)[C@H](O)[C@H]4O)[C@@H](O)[C@@H]3O)[C@@H]2O[C@@H]2O[C@@H](C)[C@H](OC(=O)[C@H](C)[C@@H](C)OC(=O)[C@H](C)[C@@H](C)O[C@@H]3O[C@H](C)[C@@H](O)[C@H](O)[C@H]3O)[C@@H](O[C@@H]3O[C@H](CO)[C@@H](O)[C@H](O)[C@H]3O)[C@H]2O)[C@H](O)[C@@H](O[C@@H]2O[C@H](CO)[C@@H](O)[C@H](O)[C@H]2O)[C@@H]1O`, the IC50 in the assay with BV-2 is 19.1 µM. Moreover, the outcome with PC-12 was Active.
